# Assay results as given in US9579364B2, “Methods for treating benign prostatic hypertrophy (BPH)” (New York University, priority 2002, dated 2017).
# Marks after values point to notes of the source that are not given here. Bridge positions count the residues as written; N and C are the ends. Square brackets hold non-standard residues; d marks the D form. Peptide text beside a SMILES is read from it. dDab = NCC[C@@H](N)C(=O)O
# Key:
# [1] = test system: all five somatostatin receptor subtypes; conditions: cited from earlier work
# [2] = cited from earlier work
# IGF-I receptor = IGF-I receptor immunopositive cells in prostate elements; type: in vivo
# [3] = test system: probasin in epithelial cells of the prostate; assay: Probasin immunostaining of prostate sections (FIG. 6); type: in vivo, mice; conditions: FIG. 6(i-l)
# Description: FIG. 6 depicts the effect of IGF-1 and/or T on histological appearance of prostate glands during development. Sections are shown through prostate glands from control animals (a, e, i) and animals treated with T alone (b, f, j), IGF-I alone (c, g, k), and IGF-I plus T (d, h, i). […] (i-1) Probasin immunostaining, brown color in the epithelial cells of the prostate. Magnification ×400.
# The relative effects of IGF-I and T on prostate development were also studied in histological sections of whole prostate. This allowed determination of such effects on glandular microstructure and the stromal compartment of the prostate.
# FIG. 6 depicts sections through prostate glands from control animals (FIG. 6(a, e, i)), animals treated with T alone (FIG. 6(b, f, j)), IGF-I alone (FIG. 6(c, g, k)), and IGF-I plus T (FIG. 6(d, h, i)).
# [4] = test system: prostate of castrated IGF-I^(−/−) null male mice; assay: Morphometry of histological prostate sections, castrated IGF-I(-/-) null male mice treated 7 days; type: in vivo
# Description: Groups of castrated IGF-I^(−/−) null male mice were treated with either vehicle, testosterone in silastic capsules, des(1-3) IGF-I by an infusion through an Alzet pump containing 20 μg per pump, or the combination of testosterone and IGF-I for a period of 7 days.
# In order to determine which specific structure was affected by which hormone, entire urogenital complexes were embedded in paraffin blocks, including the prostate glands, coagulating glands, seminal vesicles, urethra, urinary bladder attached to parts of the ureter, vas deferens, and ampullary glands. These were carefully sectioned such that the areas of prostate development could be analyzed.
# The prostates were then removed, fixed and examined histologically. Morphometric analysis was carried on 30 cross sections of the prostate taken from five different serial sections. Changes in the area of the lumen, epithelial layer and fibromuscular layer were determined. These counts were performed using a Provis ×70 microscope (Olympus) attached to an Olympus DP10 digital camera. Images were taken using a 20× apochromate objective and were captured digitally at a resolution of 386 pixels. Data were tested for statistical significance using the SPSS statistical computer program (SPSS, Inc., Chicago, Ill.). Since assumptions for a parametric test were not valid (Kolmogorov-Sminov p<0.05), all data were evaluated by Kruskall-Wallis analysis of variance and the Mann-Whitney U test as a multiple comparison method.
# [5] = test system: prostate of castrated IGF-I^(−/−) male mice; assay: Prostate glandular tree development, castrated IGF-I(-/-) male mice treated 28 days; type: in vivo; conditions: 28 days treatment
# Description: These include transgenic mice overexpressing a GH antagonist (that binds to and inactivates GH receptors making the animals functionally deficient in GH), growth hormone releasing factor receptor (GHRH-R^−/−) knockout mice (Lit/Lit), and Ames (df/df) mice (Prop 1 Deficiency). Deficient prostate development in GH inhibitor overexpression animals was previously reported (see Ruan et al, Endocrinology 140:1984-1989, 1999). Analysis of development was determined by dissecting away the periprostatic fat and teasing the glandular structures from the connective tissue in a solution containing collagenase so that the entire glandular tree could be photographed for later structural analysis. Much the same as in the mice overexpressing the mutant growth hormone, the other GH deficient mice had significant impairment of prostate development (p<0.0002) including a reduction in the number of terminal duct tips (TDTs), the area of the prostate gland, the number of quaternary branches and the number of branch points (TABLE 3). Any differences in these GH deficient mice may in part be due to the fact that the different strains were not analyzed at exactly the same age (Lit/Lit 50 days old, Ames 47 days old and bGH transgenic 44 days of age). The n was also different which may have led to greater significance in the Lit/Lit mice.
# To clearly differentiate between the effects of IGF-I and T on development of the prostate gland, hormone replacement experiments were conducted on IGF-I^(−/−) male mice that had been castrated. In addition to evaluating the effect of IGF-I and T on gland structure development described above, we also evaluated the relative effects of these hormones on development of the stromal compartment of the prostate and also on histology of the glandular compartment. This was accomplished by sectioning and staining the prostate to highlight aspects of development.
# Castrated IGF-I^(−/−) male mice were treated with T (administered by silastic capsules embedded on the backs of animals, subcutaneously). Des (1-3) IGF-I (40 μg/pump) was also implanted subcutaneously.
# [6] = test system: prostate of IGF-I^(−/−) null male mice; assay: Restoration of prostate development in IGF-I(-/-) null male mice; type: in vivo
# Description: That IGF-I was also found to be essential for full prostate development was shown in a series of experiments employing IGF-I^(−/−) null male mice.
# [7] = test system: prostate of intact 28 day old male mice; assay: PQ401 or SS14 treatment of intact 28 day old male mice: prostate; type: in vivo
# Description: To examine further the effect of various compounds on glandular and fibromuscular development of the prostate, somatostatin-14 (SS14, a native somatostatin) and an exemplary small molecule IGF-I receptor inhibitor PQ401 were assessed in a variety of animal models.
# In a first experimental approach, the effect of treatment of intact 28 day old male mice with vehicle or PQ401 (a small molecule IGF-I receptor specific inhibitor) or somatostatin-14 (SS14; a native somatostatin) was evaluated. PQ401 and SS14 inhibit IGF-I action. For these experiments, N=5 mice per group. The results of these experiments are presented below in Tables 7-10: […]
# IGF-IR signaling = conditions: chemical library screen; cited from earlier work
# [8] = castrated IGF-I knockout male mice, 7 days treatment
# [9] = castrated at 56 days, hormones for 7 days (Table 5)
compound,measurement,setting,value
C[C@@H](O)[C@@H]1NC(=O)[C@H](CCCCN)NC(=O)[C@@H](Cc2c[nH]c3ccccc23)NC(=O)[C@H](Cc2ccccc2)NC(=O)[C@H](Cc2ccccc2)NC(=O)[C@H](CCCNC(=N)N)NC(=O)[C@H](NC(=O)[C@@H](N)Cc2ccc(O)cc2)CCNC(=O)[C@H](Cc2ccccc2)NC1=O [KE108] (H-Y[dDab]RFF[dW]KTF; lactam 2-C),affinity for all five somatostatin receptor subtypes,[1],extremely high affinity
same,stability in human serum,[2],stable for several hours
"C[C@]12CC[C@H]3[C@@H](CCC4=CC(=O)CC[C@@]43C)[C@@H]1CC[C@@H]2O [TESTOSTERONE, testosterone]","% IGF-I receptor immunopositive cells, epithelium",IGF-I receptor; prostate epithelium,0%
same,"% IGF-I receptor immunopositive cells, fibromuscular",IGF-I receptor; prostate fibromuscular elements,95 ± 0.4%
same,probasin immunostaining in the epithelial cells of the prostate,[3],scattered number of probasin immunopositive epithelial cells
same,Area of prostatic component (mean values): Eptithelium,[4]; [8],"Eptithelium = 84,551.64 μm^2"
same,Area of prostatic component (mean values): Lumen,[4]; [8],"Lumen = 369,495.45 μm^2"
same,Area of prostatic component (mean values): Stroma (connective-muscle),[4]; [8],"Stroma (connective-muscle) = 89,797.254 μm^2"
same,Area of prostatic components (mean values): Total,[4]; [8],"Total = 543,844.34 μm^2"
same,Percentage of area: Eptithelium,[4]; [8],15%
same,Percentage of area: Lumen,[4]; [8],69%
same,Percentage of area: Stroma (connective-muscle),[4]; [8],16%
same,Mean area of prostatic component: Epithelium,[4]; [9],84 × 10^3 μm^2
same,Mean area of prostatic component: Fibromuscular tissue,[4]; [9],89 × 10^3 μm^2
same,Mean area of prostatic component: Lumen,[4]; [9],369 × 10^3 μm^2
same,Mean section size,[4]; [9],543 × 10^3a μm^2
same,percentage occupied: Epithelium,[4]; [9],(15%)^a
same,percentage occupied: Fibromuscular tissue,[4]; [9],(16%)^b
same,percentage occupied: Lumen,[4]; [9],(69%)^a
same,"4°- branching, ventral prostate",[5],8.0 ± 0.6 ^a
same,"Area, dorsal prostate",[5],0.15 ± 0.01 ^a cm^2
same,"Area, ventral prostate",[5],0.16 ± 0.01 ^a cm^2
same,"Branch Points, ventral prostate",[5],12.0 ± 1.2 ^
same,"Terminal Duct Tips, dorsal prostate",[5],17.0 ± 1.2 ^a
same,"Terminal Duct Tips, ventral prostate",[5],16.3 ± 1.2 ^
same,"Width of TDTs, dorsal prostate",[5],0.227 ± 0.003 ^b mm
same,"Width of TDTs, ventral prostate",[5],0.236 ± 0.003 ^b mm
same,restoring impaired prostate development,[6],partially but significantly restored
COc1ccc(Cl)cc1NC(=O)Nc1cc(C)nc2ccccc12 [PQ401],area of the Longitudinal muscle,"[7]; 28 day old male mice, controls 0.939",0.868 mm^2
same,total area of the Circular muscle,"[7]; 28 day old male mice, controls 1.322",0.789 mm^2
same,% Reduction of prostate weight,"[7]; intact 28 day old male mice, vs 28 day control",31%
same,prostate weight,"[7]; intact 28 day old male mice, control 26.8 ± 1.0, p < 0.0001",18.4 ± 0.5 mg
same,inhibition of IGF-IR signaling,IGF-IR signaling,potent inhibitor
